Peptide text beside a SMILES is read from it. * marks the point of attachment. X1 = C[C@@H]1C[C@H]2[C@@H]3CCC4=CC(=O)C=C[C@]4(C)[C@@]3(F)[C@@H](O)C[C@]2(C)[C@@]1(O)C(=O)CSCCC(=O)*

One test deals with T1, Gal4-GR★-VP16 (Homo sapiens, UniProt P04150, C638G).
T1 sequence (P04150 524-758 C638G): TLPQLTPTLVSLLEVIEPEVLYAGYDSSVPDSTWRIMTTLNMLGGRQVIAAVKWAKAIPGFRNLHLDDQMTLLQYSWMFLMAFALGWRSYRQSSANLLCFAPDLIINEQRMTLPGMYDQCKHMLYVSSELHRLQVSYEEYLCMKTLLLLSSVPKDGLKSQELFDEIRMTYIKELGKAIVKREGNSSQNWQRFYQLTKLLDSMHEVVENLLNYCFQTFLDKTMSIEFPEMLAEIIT
The test is described as follows: GIGI in cell lysates, stably transfected U2OS. To be noted: U2OS(GIGI) cells; for Z′-factor of GIGI assay: 1 μM vs untreated, 24 h, n = 150.

Test [1] addresses T2, GR★-GFP (Homo sapiens, UniProt P04150, C638G).
T2 sequence (P04150 1-777 C638G): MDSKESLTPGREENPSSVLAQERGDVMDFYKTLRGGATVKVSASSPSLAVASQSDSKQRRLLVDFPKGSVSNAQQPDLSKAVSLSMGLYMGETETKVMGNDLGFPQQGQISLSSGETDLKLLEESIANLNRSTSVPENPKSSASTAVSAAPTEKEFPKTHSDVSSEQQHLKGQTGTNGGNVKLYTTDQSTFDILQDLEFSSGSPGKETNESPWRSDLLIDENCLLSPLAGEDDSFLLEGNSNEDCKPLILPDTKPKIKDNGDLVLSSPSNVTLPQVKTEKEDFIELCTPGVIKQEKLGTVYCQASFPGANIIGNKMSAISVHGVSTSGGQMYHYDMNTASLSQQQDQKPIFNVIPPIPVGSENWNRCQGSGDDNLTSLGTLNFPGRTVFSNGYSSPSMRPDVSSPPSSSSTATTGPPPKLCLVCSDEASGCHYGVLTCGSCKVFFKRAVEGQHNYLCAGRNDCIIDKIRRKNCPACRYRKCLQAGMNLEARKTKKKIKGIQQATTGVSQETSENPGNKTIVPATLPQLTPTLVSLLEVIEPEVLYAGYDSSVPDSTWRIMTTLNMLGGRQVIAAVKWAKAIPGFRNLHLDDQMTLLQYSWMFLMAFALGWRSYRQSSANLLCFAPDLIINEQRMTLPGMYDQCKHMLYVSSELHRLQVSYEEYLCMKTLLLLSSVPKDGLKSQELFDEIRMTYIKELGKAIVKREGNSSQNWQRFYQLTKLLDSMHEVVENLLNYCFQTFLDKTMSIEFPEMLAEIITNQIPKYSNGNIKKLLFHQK
Briefly: High-content imaging of GIGT in stably transfected Saos-2. Format: cell-based. The note with it: Saos-2(GIGT) cells, 30 min; for Z′-factor of GIGT assay: 1 μM vs untreated.

A further test addresses rat C656G GR. The note with it: read-out: equilibrium dissociation constant (Kd), in vitro; cited from earlier work.
Test [2] deals with T2, GR★-GFP. Briefly: GIGT nuclear translocation, transiently transfected cells expressing GR★-GFP. Format: cell-based. The note with it: HeLa cells expressing GR★-GFP, 500 nM, 30 min.

Turning to `CC(C)C[C@H](NC(=O)[C@H](Cc1c[nH]cn1)NC(=O)[C@H](CCCNC(=N)N)NC(=O)[C@H](CO)NC(=O)[C@H](CC(C)C)NC(=O)[C@@H](NC(=O)[C@H](Cc1ccccc1)NC(=O)[C@H](C)NC(=O)[C@H](CCCCN)NC(=O)CNC(=O)[C@H](CS)NC(=O)[C@@H](NC(=O)[C@H](CC(N)=O)NC(=O)[C@H](CS)NC(=O)[C@H](CO)NC(=O)[C@H](Cc1ccc(O)cc1)NC(=O)[C@@H](N)Cc1c[nH]c2ccccc12)C(C)C)C(C)C)C(=O)N[C@@H](CC(N)=O)C(=O)N[C@@H](CCCNC(=N)N)C(=O)N[C@@H](Cc1c[nH]cn1)C(=O)N[C@@H](CC(C)C)C(=O)N[C@@H](CCCNC(=N)N)C(=O)N[C@H](C(=O)N[C@@H](Cc1c[nH]cn1)C(=O)N[C@@H](CCCNC(=N)N)C(=O)N[C@@H](CCCNC(=N)N)C(=O)N[C@@H](C)C(=O)N[C@H](C(=O)N[C@@H](CCCCNC(=O)CCSCC(=O)[C@@]1(O)[C@H](C)C[C@H]2[C@@H]3CCC4=CC(=O)C=C[C@]4(C)[C@@]3(F)[C@@H](O)C[C@@]21C)C(N)=O)[C@@H](C)O)C(C)C` [ZF5.3^Dex] (H-WYSCNVCGKAFVLSRHLNRHLRVHRRATK(X1)-NH2; N-terminus and C-terminus assumed), the “Z′-factor of GIGI assay” value at Gal4-GR★-VP16 came to 0.42. Also, the “Z′-factor of GIGT assay” value at GR★-GFP [1] is given as 0.56.

One may read the Kd as the equilibrium constant for the complex coming apart. With `C[C@@H]1C[C@H]2[C@@H]3CCC4=CC(=O)C=C[C@]4(C)[C@@]3(F)[C@@H](O)C[C@]2(C)[C@@]1(O)C(=O)CO` [Dex, dexamethasone], the Kd on rat C656G GR is 0.55 nM.

In the case of `CC[C@H](C)[C@H](NC(=O)[C@H](CC(C)C)NC(=O)[C@H](CC(=O)O)NC(=O)[C@H](CCCNC(=N)N)NC(=O)[C@@H](NC(=O)[C@@H]1CCCN1C(=O)[C@H](C)NC(=O)[C@H](CC(=O)O)NC(=O)[C@H](CC(=O)O)NC(=O)CNC(=O)[C@@H]1CCCN1C(=O)[C@H](Cc1ccc(O)cc1)NC(=O)[C@@H](NC(=O)[C@@H]1CCCN1C(=O)[C@H](CCC(N)=O)NC(=O)[C@H](CO)NC(=O)[C@@H]1CCCN1C(=O)CN)[C@@H](C)O)C(C)C)C(=O)N[C@@H](CCCNC(=N)N)C(=O)N[C@@H](Cc1ccccc1)C(=O)N[C@@H](Cc1ccc(O)cc1)C(=O)N[C@@H](CCCNC(=N)N)C(=O)N[C@@H](CC(=O)O)C(=O)N[C@@H](CC(C)C)C(=O)N[C@@H](CCCNC(=N)N)C(=O)N[C@@H](CCCNC(=N)N)C(=O)N[C@@H](Cc1ccc(O)cc1)C(=O)N[C@@H](CC(C)C)C(=O)N[C@@H](CC(N)=O)C(=O)N[C@H](C(=O)N[C@H](C(=O)N[C@H](C(=O)N[C@@H](CCCNC(=N)N)C(=O)N[C@@H](Cc1c[nH]cn1)C(=O)N[C@@H](CCCNC(=N)N)C(=O)N[C@@H](Cc1ccc(O)cc1)C(=O)N[C@@H](CCCCNC(=O)CCSCC(=O)[C@@]1(O)[C@H](C)C[C@H]2[C@@H]3CCC4=CC(=O)C=C[C@]4(C)[C@@]3(F)[C@@H](O)C[C@@]21C)C(N)=O)[C@@H](C)O)C(C)C)C(C)C` [5.3^Dex] (H-GPSQPTYPGDDAPVRDLIRFYRDLRRYLNVVTRHRYK(X1)-NH2; N-terminus and C-terminus assumed), at Gal4-GR★-VP16 (1 μM), the “eGFP expression after treatment and cell lysis” value was “significant eGFP expression”. For the same compound, the “Z′-factor of GIGI assay” value at Gal4-GR★-VP16 is listed as 0.56. For the same compound, the “Z′-factor of GIGT assay” value at GR★-GFP [1] is 0.54. The results for the “translocation ratio (TR)” value on GR★-GFP [1] (1 μM) and on GR★-GFP [2] were 4.01 ± 0.30 and 2.79 ± 0.39, respectively.

The record behind these values is PMC4006873 (Biochemistry, 2013).
